The target in data set [1] is T1, human recombinant TDO2 enzyme (Homo sapiens, UniProt P48775).
T1 construct: made in house
The data set can be described thus: Assay for TDO2 enzymatic activity determination. Type of data set: biochemical. The conditions noted are these: human recombinant TDO2, L-Trp 1 mM, room temperature one hour, kynurenine absorbance at 480 nm. As to the method:
To measure the TDO2 activity, the reaction mixture contained (final concentrations) potassium phosphate buffer (50 mM, pH 7.5), ascorbic acid (0.25 M), methylene blue (0.125 μM), catalase (40 units/mL, from bovine liver, Sigma), and human recombinant TDO2 enzyme (prepared as described in Dolusic et al. J. Med. Chem.; 2011, 54, 5320-5334; 0.9 μg) without or with the compounds of the present invention embodiments at the indicated concentrations (total volume 112.5 μL). The reaction was initiated by the addition of 37.5 μL of L-Trp (final concentration 1 mM) at room temperature. The reaction was conducted at room temperature during one hour and stopped by the addition of 30 μL of 30% (w/v) trichloroacetic acid.
To convert N-formylkynurenine into kynurenine, the reaction mixture was incubated at 65° C. for 30 min. Then 150 μL of the reaction mixture was mixed with 120 μL, of 2.5% (w/v) 4-(dimethylamino)-benzaldehyde in acetic acid and incubated for 5 min at room temperature. Kynurenine concentrations were determined by measuring the absorbance at 480 nm. A standard curve was made with pure kynurenine. The TDO activity was measured as described above using ten serial concentrations of certain embodiments of the compounds of the present invention. Data were fitted using the Prism software (GraphPad Software, Inc.).

For data set [2], the target named is T2, murine mastocytoma P815 cells overexpressing hTDO2 (Homo sapiens, UniProt P48775).
T2 construct: expressed in transfected cells; host or cells: murine mastocytoma P815 cells
T2 sequence (P48775 whole entry): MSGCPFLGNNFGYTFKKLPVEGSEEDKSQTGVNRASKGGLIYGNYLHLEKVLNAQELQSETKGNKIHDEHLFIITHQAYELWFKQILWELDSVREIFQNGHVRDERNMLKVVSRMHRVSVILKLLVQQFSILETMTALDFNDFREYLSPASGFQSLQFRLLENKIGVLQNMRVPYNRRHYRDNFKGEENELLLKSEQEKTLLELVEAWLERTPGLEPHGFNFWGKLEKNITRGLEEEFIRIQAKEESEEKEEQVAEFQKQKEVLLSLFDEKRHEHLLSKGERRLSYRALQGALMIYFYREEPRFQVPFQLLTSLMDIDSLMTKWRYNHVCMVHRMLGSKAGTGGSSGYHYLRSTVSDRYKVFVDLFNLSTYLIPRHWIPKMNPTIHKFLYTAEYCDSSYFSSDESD
In words: Cellular assay for TDO2 activity determination. The following applies: P815 cells overexpressing hTDO2, overnight incubation at 37° C., kynurenine absorbance at 480 nm. Type of data set: cell-based. As to the method:
The assay was performed in 96-well flat bottom plates seeded with murine mastocytoma P815 cells overexpressing hTDO2 (prepared as described in Pilotte et al., PNAS, 2012, 109(7), 2497-2502), at a concentration of 5×10^4 cells/well in a final volume of 200 μL. To determine TDO or IDO activity, the cells were incubated overnight at 37° C. at 5% CO2 in IMDM (Invitrogen) supplemented with 2% FBS and 2% penicillin/streptomycin in the presence of the compounds of the present invention, at different concentrations.
The plates were then centrifuged 5 min at 1000 rpm, and 100 μL of the supernatant were collected in a conical plate, 30 uL of TCA 30% were added and a further centrifugated at 3000×g for 10 minutes. 100 μL of the supernatant were collected in a flat bottomed plate and 100 μL of 2% (w/v) 4-(dimethylamino)-benzaldehyde in acetic acid and incubated for 5 min at room temperature. Kynurenine concentrations were determined by measuring the absorbance at 480 nm. A standard curve was made with pure kynurenine. The TDO activity was measured as described above using ten serial concentrations of the compounds of the present invention. Data were fitted using the Prism software (GraphPad Software, Inc.).

The results in this text go back to US9126984B2, “4-(indol-3-yl)-pyrazole derivatives, pharmaceutical compositions and methods for use” (ITEOS THERAPEUTICS, priority 2013, dated 2015).

Structures are written as SMILES. Where only a bound is given, the exact number is not on record here.

T1 sequence (P48775 whole entry): as above

As to `CC(Cn1cc(-c2c[nH]c3cc(F)ccc23)cn1)C(N)=O` (single isomer, unassigned) [Example 35, 3-(4-(6-fluoro-1H-indol-3-yl)-1H-pyrazol-1-yl)-2-methylpropanamide], the melting point (as a rule, the temperature of the solid-liquid transition) fell in the range of 184.5 to 185.5 °C. Also, the IC50 (as a rule, the midpoint of a concentration-inhibition curve) in data set [1] fell in the range of 1 to 10 µM. The molecule further had an IC50 in data set [2] of less than 1 µM.

The molecule `NC(=O)CCn1cc(-c2c[nH]c3cc(F)ccc23)cn1` [Example 7, 3-(4-(6-fluoro-1H-indol-3-yl)-1H-pyrazol-1-yl)propanamide] gave a melting point of 173.3 to 175 °C. In addition, in data set [1], the IC50 was less than 1 µM. In data set [2], the IC50 was less than 1 µM.

As to `CNCCn1cc(-c2c[nH]c3cc(F)ccc23)cn1` [Example 24, 2-(4-(6-fluoro-1H-indol-3-yl)-1H-pyrazol-1-yl)-N-methylethanamine], the melting point lay within 94.2 to 95.2 °C. For the same molecule, the IC50 in data set [1] is less than 1 µM. Also, the IC50 in data set [2] fell in the range of 1 to 10 µM.

As for `CS(=O)(=O)CCn1cc(-c2c[nH]c3cc(F)ccc23)cn1` [Example 31, 6-fluoro-3-(1-(2-(methylsulfonyl)ethyl)-1H-pyrazol-4-yl)-1H-indole], the melting point was 153.3 to 155.1 °C. The IC50 in data set [1] lay within 1 to 10 µM. The IC50 in data set [2] is less than 1 µM.

Molecule `Fc1cc2[nH]cc(-c3cnn(CC4CCNCC4)c3)c2cc1F` [Example 44, 5,6-difluoro-3-(1-(piperidin-4-ylmethyl)-1H-pyrazol-4-yl)-1H-indole] displayed a melting point of 167.1 to 168.9 °C. The half-inhibitory concentration (IC50) in data set [1] fell in the range of 1 to 10 µM. In data set [2], this molecule registered an IC50 of less than 1 µM.

Regarding `Fc1ccc2c(-c3cnn(CC4CCOCC4)c3)c[nH]c2c1` [Example 58, 6-fluoro-3-(1-((tetrahydro-2H-pyran-4-yl)methyl)-1H-pyrazol-4-yl)-1H-indole], the melting point lay within 138.9 to 139.6 °C. Further, in data set [1], the IC50 is 1 to 10 µM. Further, the half-inhibitory concentration (IC50) in data set [2] lay in the range of 1 to 10 µM.

With `O=S1(=O)CCC(Cn2cc(-c3c[nH]c4cc(F)ccc34)cn2)CC1` [Example 60, 4-((4-(6-fluoro-1H-indol-3-yl)-1H-pyrazol-1-yl)methyl)tetrahydro-2H-thiopyran 1,1-dioxide], the melting point lay within 193.1 to 194.1 °C. Moreover, the IC50 in data set [1] was in the range of 1 to 10 µM. In addition, the IC50 in data set [2] was 1 to 10 µM.

Take `Fc1ccc2c(-c3cnn(C4CCNCC4)c3)c[nH]c2c1` [Example 78, 6-fluoro-3-(1-(piperidin-4-yl)-1H-pyrazol-4-yl)-1H-indole]: the melting point is 240.1 to 241.8 °C. Moreover, the IC50 in data set [1] fell in the range of 1 to 10 µM. This molecule registered an IC50 in data set [2] of less than 1 µM.

In turn, `O=C(CO)N1CCC(n2cc(-c3c[nH]c4cc(F)ccc34)cn2)CC1` [Example 84, 1-(4-(4-(6-fluoro-1H-indol-3-yl)-1H-pyrazol-1-yl)piperidin-1-yl)-2-hydroxyethanone] registered a melting point of 99.9 to 102.1 °C. In addition, in data set [1], the IC50 was 1 to 10 µM.

For the molecule `CC(C)C(=O)N1CCC(n2cc(-c3c[nH]c4cc(F)ccc34)cn2)CC1` [Example 86, 1-(4-(4-(6-fluoro-1H-indol-3-yl)-1H-pyrazol-1-yl)piperidin-1-yl)-2-methylpropan-1-one], the melting point lay within 210.2 to 211 °C. Besides, the IC50 in data set [1] is 1 to 10 µM.

Consider `CC(C)(C)C(=O)N1CCC(n2cc(-c3c[nH]c4cc(F)ccc34)cn2)CC1` [Example 87, 1-(4-(4-(6-fluoro-1H-indol-3-yl)-1H-pyrazol-1-yl)piperidin-1-yl)-2,2-dimethylpropan-1-one], for which the melting point lay within 231 to 232 °C. Also, the IC50 in data set [1] lay within 1 to 10 µM.

`O=C(C1CC1)N1CCC(n2cc(-c3c[nH]c4cc(F)ccc34)cn2)CC1` [Example 88, cyclopropyl(4-(4-(6-fluoro-1H-indol-3-yl)-1H-pyrazol-1-yl)piperidin-1-yl)methanone] had a melting point of 190.7 to 191.4 °C. Further, the IC50 in data set [1] is 1 to 10 µM.

In turn, `CC(=O)N1CCC(n2cc(-c3c[nH]c4cc(F)ccc34)cn2)CC1` [Example 89, 1-(4-(4-(6-fluoro-1H-indol-3-yl)-1H-pyrazol-1-yl)piperidin-1-yl)ethanone] had a melting point of 183.2 to 184.5 °C. Further, the IC50 in data set [1] was 1 to 10 µM. For the same molecule, the IC50 in data set [2] was less than 1 µM.

`CN(C)C(=O)N1CCC(n2cc(-c3c[nH]c4cc(F)ccc34)cn2)CC1` [Example 90, 4-(4-(6-fluoro-1H-indol-3-yl)-1H-pyrazol-1-yl)-N,N-dimethylpiperidine-1-carboxamide]: the melting point was 223 to 224.6 °C. The IC50 in data set [1] lay within 1 to 10 µM.

In the case of `CN1CCC(n2cc(-c3c[nH]c4cc(F)ccc34)cn2)CC1` [Example 91, 6-fluoro-3-(1-(1-methylpiperidin-4-yl)-1H-pyrazol-4-yl)-1H-indole], the melting point lay in the range of 222.8 to 223.7 °C. Moreover, in data set [1], the IC50 was in the range of 1 to 10 µM. In data set [2], this molecule gave an IC50 of less than 1 µM.
